Results: patent US20240325370A1, “THERAPEUTIC REGIMENS OF A DEGRADER OF BRD9” (FOGHORN THERAPEUTICS INC., priority 2021, published 2024)
Entries after “also recorded” stand apart in the source; their conditions may differ. Read-outs that look alike come from different tables or passages of the source.

Columns and labels:
[1] = biological target: T1, BRD9 (Homo sapiens, UniProt Q9H8M2); experiment: BRD9 degradation by western blot in synovial sarcoma cells (SYO-1, ASKA); assay type: cell-based; conditions: for DC50: read-out: Fitted DC50
T1 sequence (Q9H8M2 1-597): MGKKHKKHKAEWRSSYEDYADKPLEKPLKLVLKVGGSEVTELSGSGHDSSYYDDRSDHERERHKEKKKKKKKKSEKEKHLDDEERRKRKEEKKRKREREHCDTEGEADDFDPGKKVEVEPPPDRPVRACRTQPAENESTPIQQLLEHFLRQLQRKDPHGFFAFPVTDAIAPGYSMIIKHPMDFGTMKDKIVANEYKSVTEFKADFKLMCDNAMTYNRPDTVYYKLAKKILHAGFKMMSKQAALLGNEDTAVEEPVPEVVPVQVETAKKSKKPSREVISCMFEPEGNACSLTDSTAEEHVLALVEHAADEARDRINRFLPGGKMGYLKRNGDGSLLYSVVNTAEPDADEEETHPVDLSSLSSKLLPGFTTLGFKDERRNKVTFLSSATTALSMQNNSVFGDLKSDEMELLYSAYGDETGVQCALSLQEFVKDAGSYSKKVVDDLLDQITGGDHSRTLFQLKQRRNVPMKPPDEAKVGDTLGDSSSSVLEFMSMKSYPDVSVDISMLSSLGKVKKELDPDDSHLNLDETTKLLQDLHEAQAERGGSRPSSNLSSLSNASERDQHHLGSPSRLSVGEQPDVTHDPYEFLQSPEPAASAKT
Experimental: Method. Synovial sarcoma cells were plated in 6-well plate at […] cells/well and treated with serial concentrations of BRD9 degrader (10 nM top concentration, diluted 1:3) the next day for two time points at 37° C. Cells were then harvested, washed with cold PBS, and frozen in cell pellets at −80° C. Lysates were prepared by resuspending thawed pellets in 1×RIPA Lysis and Extraction buffer (Thermo Fisher, Cat #89900) with 1× Halt™ Protease and Phosphatase Inhibitor Cocktail, EDTA-free (Thermo Fisher, Cat #78441) and 1:1000 dilution Pierce™ Universal Nuclease for Cell Lysis 25ku (Thermo Fisher, Cat #88700). Lysates were incubated on ice for 10 minutes and then centrifuged in 4° C. at maximum speed (15,000 rpm) for 10 minutes. Samples were then analyzed for total protein using BCA protein quantification assay and diluted to 1 ug/μL with lysis buffer and 1× NuPAGE™ LDS Sample Buffer (4×) (Thermo Fisher, Cat #NP0007) and 1×DTT from 30× stock (Cell Signaling Technologies, Cat #14265S). Samples with 20-25 ug of total protein were loaded into 4-12% Bis-Tris Mini-Gel with 1×MES Running buffer and run at 150V for 45 minutes. Gels were transferred using Trans-Blot® Turbo™ Transfer System (semi-dry) at 25V for 10 minutes (High MW setting) on nitrocellulose blots. Blots were blocked in 5% milk in TBST for 1 hour and probed with BRD9 antibody (Bethyl Labs, Cat #A303-781A, 1:750 for SYO1, and Cell Signaling Technologies, Cat #71232S for ASKA) and beta-Actin antibody (Cell Signaling Technologies, Cat #3700, 1:2000) overnight at 4° C. The next day, blots were washed in TBST 3× and probed with 1:5000 IRDye® 680LT Goat anti-Rabbit IgG Secondary Antibody (LICOR, Cat #926-68021) and 1:10000 IRDye® 800CW Goat anti-Mouse IgG Secondary Antibody (LiCOR, Cat #926-32210) in LiCOR Odyssey® Blocking Buffer (TBS) for 1 hour at room temperature. Blots were washed in TBST 3× and scanned at […] wavelength using LiCOR Odyssey® CLx Imaging System. Western blot signal was quantified using same analyses program included in the same machine. BRD9 signal was quantified by normalizing to beta-actin signal and all samples were normalized to DMSO, set as 100% signal.

[2] = biological target: T1, BRD9; experiment: Drug washout and competition experiments in SYO-1 cells; conditions: two washouts, five washes per washout step
Experimental: Drug Washout and Competition Experiments in SYO-1 Cells.
SYO-1 cells grown in flasks to log phase growth were washed with PBS and dissociated by adding TrypLE™ Express. The collected cells were resuspended in DMEM (high glucose, with GlutaMAX™ supplement) with 10% FBS.
Cells were collected using fresh media and measured for cell number. 1×10^6 cells were harvested for the 24-hour treatment sample and frozen down at −80° C. The remainder of the treated cells were washed five times with 10 ml fresh media, through sequential rounds of resuspension and centrifugation at 1,000 rpm for 5 minutes.
Another 1×10^6 cells were harvested for the 24-hour post-washout sample and frozen down at −80° C. The remainder of the cells were split off evenly into two separate 100 mm petri dishes and resuspended in 10 ml culture medium in each plate.
The remaining cells of each treatment group were washed five times with 10 mL fresh media. Cells were then seeded evenly into 6-well plates in 2 ml fresh media per well. 2 wells were allocated per collection time point.

[3] = biological target: T1, BRD9; experiment: BRD9 degradation in synovial sarcoma tumor in vivo (western blot); parameters: from tissue; host or cells: SYO-1 xenograft tumours in BALB/c nude or NOD SCID mice; species or system mice; conditions: 1 mg/kg i.p. for 4 weeks; up to 168 hours after dose
Experimental: Method: Mice were treated with D1, 1 mg/kg, i.p. for 4 weeks. Mice were then euthanized, and tumors were collected at 8 hours, 72 hours, and 168 hours post last dose. Tumors were lysed with 1×RIPA lysis buffer (Boston BioProducts, BP-115D) with protease and phosphatase protein inhibitor (Roche Applied Science #04906837001 & 05892791001). Equal amounts of lysate (30 ug) were loaded in 4-12% Bis-Tris Midi Protein Gels in 1×MOPS buffer; samples ran at 120 V for 120 minutes. Protein was transferred to membrane with TransBlot at 250 mA for 150 minutes, and then membranes were blocked with Odyssey blocking buffer for 1 hour at room temperature. Membranes were hybridized overnight in cold room with primary antibodies. Images acquired using Li-COR imaging system (Li-COR Biotechnology, Lincoln, Nebraska).

DC50 ([1]; ASKA, 0.5 h) | DC50 ([1]; ASKA, 2 h) | BRD9 degradation compared with racemic parent compound D1 ([1]; SYO-1, 1 or 6 hours (FIGS. 16 and 17)) | DC50 ([1]; SYO-1, 1 h) | DC50 ([1]; SYO-1, 6 h) | potency in degradation of endogenous BRD9 protein ([1]; two synovial sarcoma cell lines, early time point) | SMILES | BRD9 degradation after second washout (removal of binding competitors) [2] | degradation of BRD9 in tumor [3]
0.34 nM | 0.012 nM | slightly better | 0.092 nM | 0.023 nM | much more potent | COc1cc(-c2cn(C)c(=O)c3cnc(N4CCC4)cc23)cc(OC)c1CN1CCC(CN2CCC3(CC2)CN(c2ccc4c(c2)C(=O)N([C@H]2CCC(=O)NC2=O)C4)C3)CC1 (single isomer, unassigned) [Compound S-D1] | retention of the BRD9-suppressive activity; also recorded: degraded again | 
 |  |  |  |  |  | COc1cc(-c2cn(C)c(=O)c3cnc(N4CCC4)cc23)cc(OC)c1CN1CCC(CN2CCC3(CC2)CN(c2ccc4c(c2)C(=O)N(C2CCC(=O)NC2=O)C4)C3)CC1 (racemic) [Compound D1, 3-[6-(7-[[1-([4-[6-(azetidin-1-yl)-2-methyl-1-oxo-2,7-naphthyridin-4-yl]-2,6-dimethoxyphenyl]methyl)piperidin-4-yl]methyl]-2,7-diazaspiro[3.5]nonan-2-yl)-1-oxo-3H-isoindol-2-yl]piperidine-2,6-dione] |  | complete degradation of BRD9 target; also recorded: BRD9 inhibition
